Test results: patent US20100016228A1, “TRUNCATED BARD1 PROTEIN, AND ITS DIAGNOSTIC AND THERAPEUTIC USES” (Ayanda Biosystems SA, priority 2000, published 2010)
Read-outs that look alike come from different tables or passages of the source. Non-standard residues stand in square brackets, D forms with d. Residues, ends and D or L forms follow the SMILES beside them. Nle = CCCC[C@H](N)C(=O)O

Experiments:
[1] = tested on: human BARD1 protein (SEQ ID NO:1); test: in vitro cleavage of 35S-labeled human BARD1 by NaB-treated SW48 cell extracts, inhibition by protease inhibitors; assay type: biochemical
Description: (§1) The human BARD1 protein (SEQ ID NO:1), labeled with ^35S-methionine, was transcribed and translated in vitro using the TNT coupled reticulocytes lysate system kit (Promega). 1 μg of plasmid was used in a reaction medium for the transcription and the translation, containing 4 μl of ^35S-methionine (NEN). For the in vitro cleavage, 2 μl of transcription/translation products were incubated with apoptotic or nonapoptotic cell extracts prepared in a DIV buffer (20 mM HEPES. PH 7.5, 10 mM NaCl, 1.5 mM MgCl2, 0.1% SB14, 0.5 mM PMSF) at 37° C. for the period of time indicated. […] Inhibition of the cleavage was evaluated by adding caspase inhibitors or a proteasome inhibitor (lactacystine) (Calbiochem) or the calpain inhibitor I (ALLnL) (Chemicon).
To define the proteolytic activity responsible for the cleavage of hBARD1 (SEQ ID NO:1), various preparations of cell extracts from SW48 cells treated with NAB were tested. It appears that both the nuclear preparations and the mitochondrial preparations were capable of cleaving hBARD1 (SEQ ID NO:1). The supernatant at 13,000×g of the organelle preparation had no effect.

[2] = tested on: caspases 3, 6 and 8; test: caspase activity in extracts of NaB-treated SW48 cells (fluorogenic substrates); assay type: cell-based, human; settings: during NaB treatment of SW48 cells; caspase 3 most active after 6 and 12 hours
Description: For assaying the caspase activity, 10 μg of cell extracts were diluted in 5 μl of DIV buffer:
Acetyl-Asp-Glu-Val-Asp-7-amino-4-methylcoumarin (Ac-DEVD-AMC), acetyl-Val-Glu-Ile-Asp-7-amino-4-methylcoumarin (Ac-VEID-AMC) and […] (Bachem), substrates for caspases 3, 6 and 8, respectively, were added at a final concentration of 50 μM. The cleavage activity was controlled on Fluorolite 1000 (Dynatech laboratories).

[3] = tested on: SW48 cells; test: NaB treatment of SW48 cells: induction of BARD1 and calpastatin cleavage; assay type: cell-based, human; settings: SW48 cells treated with NaB
Description: Apoptosis was induced by treatment with sodium butyrate (NaB). The cells at different stages of confluence were treated in complete medium at 37° C. and with 5 mM of NaB (Sigma) for various periods of time. The apoptotic bodies were purified as previously described (Gautier et al., 1999):
as §1
The SW48 cells were arrested in G0 by contact inhibition in 175 cm^2 flasks. After confluencing for 3 days, the cells were split 1:10 in 75 cm^2 flasks at a concentration of 3×10^6 cells per flask. 12, 20, 28, 36 and 44 hours after seeding, the cells were treated with 5 mM of NaB for 24 hours and collected. To determine the cell cycle distribution at each time, the content of each flask was subjected to trypsinization, washed three times in 10 ml of ice-cold PBS, and fixed with 1 ml of ice-cold 70% ethanol, added dropwise, for 16 hours at −20° C. The fixed cells were pelletted, resuspended in 500 μl of PC buffer (96% 0.2M Na2HPO4, 4% 15 0.1M citric acid, pH 7.8) and left at ambient temperature for 30 minutes. They were then washed and resuspended in 500 μl of propidium iodide in a staining solution (PBS, 0.12% Triton X-100, 0.12 mM EDTA, 100 μg/ml RNase A), incubated for 30 minutes at 37° C. and analyzed on a FACScan (flow cytometer) (Beckton Dickinson). […]

[4] = tested on: PROb tumors; test: vaccination of BDIX rats, then subcutaneous PROb tumor challenge; assay type: in vivo; settings: three weekly intraplantar injections of 100 μg in complete Freund's adjuvant; PROb cells s.c. two weeks after final immunization; versus control protein (fucosyl transferase)
Description: Two groups of BDIX rats were given three weekly intraplantar injections of 100 μg of F1 fragment (amino acids 460-611) of BARD1 (SEQ ID NO:9) or of a controlled protein (fucosyl transferase) purified under the same conditions as the F1 fragment. The proteins were emulsified in 100 μl of complete Freund's adjuvant. Two weeks after the final immunization, the rat colon tumor cells (PROb, 50×10^3/rat) were injected subcutaneously and the volume of the PROb tumors was estimated.

O=C(O)CN(CCOCCOCCN(CC(=O)O)CC(=O)O)CC(=O)O [EGTA]
inhibition of the hydrolysis of hBARD1 [1]: inhibited
inhibition of the hydrolysis of hBARD1 ([1]; dose-dependent manner): strongly inhibited

benzyloxycarbonyl-Asp-Glu-Val-Asp-fluoromethylketone [Z-DEVD-frnk]
inhibition of the hydrolysis of hBARD1 [1]: no effect

benzyloxycarbonyl-Val-Ala-Asp-fluoromethylketone [ZVAD-fmk]
inhibition of the hydrolysis of hBARD1 ([1]; high concentration (100 μM)): slightly inhibited

CC(=O)N[C@@H](CSC(=O)[C@]1([C@@H](O)C(C)C)NC(=O)[C@H](C)[C@@H]1O)C(=O)O [lactacystine]
blocking of the proteolysis of hBARD1 ([1]; even at concentrations of 100 μm): does not block

CCCC[C@@H](C=O)NC(=O)[C@H](CC(C)C)NC(=O)[C@H](CC(C)C)NC(C)=O [ALLnL, N-acetyl-leu-leu-norleucinal] (Ac-Leu-Leu-[Nle]-aldehyde)
inhibition of the hydrolysis of hBARD1 [1]: inhibited
inhibition of the hydrolysis of hBARD1 ([1]; dose-dependent manner): strongly inhibited

CCCC(=O)[O-].[Na+] [NaB, sodium butyrate]
activities of caspases 3, 6 and 8 [2]: gradually increased
treatment time after which BARD1 cleavage was virtually complete [3]: ~12 h
treatment time after which calpastatin was completely cleaved [3]: 12 h
treatment time after which the p67 protein appeared [3]: 4 h

benzyloxycarbonyl-Val-Glu-Ile-Asp-fluoromethyl ketone [Z-VEID-fmk]
inhibition of the hydrolysis of hBARD1 [1]: no effect

B1: BARD1 fragment: F1 fragment (amino acids 460-611) of rat BARD1 with N-terminal 6xHis tag, expressed in E. coli (protein, listed as Rattus norvegicus)
chain: SHGHLKIVELLLQHNALVNTTGYHNDSPLHDAAKNGHIDIVKVLLSHGASRNAVNIFGERPVDYTDAENIRSLLLLPEKTDSFSTSQCSVQVNTGQRKSGPLVLIGSGLSSQQQKLLSKLETVLKAKKCAEFDNTVTHVIVPDEEAQSTLKC
modifications: N-terminal 6xHis tag
notes: F1 fragment (amino acids 460-611) of rat BARD1 with N-terminal 6xHis tag, expressed in E. coli
PROb tumor growth (tumor volume) [4]: slowing down of tumor growth
